Test results reported in article PMC6105673 (Nature Communications, 2018).

Assays:
[1] = molecular target: T1, pVHL-elongin B-elongin C (VBC) complex (Homo sapiens, UniProt P40337+Q15369+Q15370); assay: Steady-state ELISA of VBC complex binding to immobilized biotinylated HIF-2α peptides; conditions: peptides (523–541) on streptavidin plate; VBC 1, 5 and 25 μg/mL; anti-elongin B antibody; three independent experiments in duplicate
T1 construct: a construct encoding N-terminal GST-tagged pVHL19 (54–213); GST (N, cleaved yes); made in house; host or cells: BL21(DE3) E. coli
Procedure: Fig. 4 Affinity of HIF-2α mutants for pVHL is correlated with disease phenotype. a Biotinylated HIF-2α peptides (523–541) were immobilized on a streptavidin-coated 96-well plate. Binding to various concentrations of pVHL-elongin B-elongin C (VBC) complex was assayed via ELISA with an anti-eloB antibody. Absorbance was read at 450 nm. Values represent mean of three independent experiments performed in duplicate ± SEM. *p < 0.05; **p < 0.01. b Biotinylated HIF-2αOH peptides (523–541) were immobilized on streptavidin- agarose beads and incubated with in vitro transcribed and translated (IVTT) pVHL. Streptavidin beads were pulled down (PD) and levels of HA-tagged pVHL were visualized via immmunoblotting (IB). c, d Biolayer interferometry kinetic analysis of VBC complex binding to biotinylated HIF-2α peptides (523–541). c Biotinylated peptides were coupled to streptavidin- coated biosensors and monitored for binding to VBC complex at the indicated concentrations. The data were analyzed based on a 1:1 binding model using the BLItz Pro software with the fitted curves shown as gray lines. […]
A 96-well streptavidin-coated plate (Quidel) was hydrated with ~200 μL of buffer A per well. […] Following the final wash step, the plates were developed according to manufacturer’s recommendations with ready-to-use TMB1 reagent (Thermo-fisher, Cat. No. 34028) for 20 min before being quenched with 2 N H2SO4. […]

[2] = molecular target: T1, pVHL-elongin B-elongin C (VBC) complex; assay: Biolayer interferometry kinetic analysis of VBC complex binding to biotinylated HIF-2α peptides; conditions: BLItz biolayer interferometry, peptide (523–541) immobilized, purified VBC, global 1:1 model; mean of three experiments ± SEM
Procedure: Absorbance was read at 450 nm. […] The data were analyzed based on a 1:1 binding model using the BLItz Pro software with the fitted curves shown as gray lines. […] Values represent mean of three experiments conducted with independently purified protein ± SEM. * denotes uncharacterized band
Multiple concentrations of purified VBC complex were diluted in kinetics buffer and allowed to associate with immobilized peptide over 120 s. Subsequently, the SA-BLI probe was immersed into kinetics buffer for 120 s to allow for dissociation. The data were analyzed, step corrected, reference corrected, and fit to a global 1:1 binding model. Kd, ka, and kd were calculated using the BLItz Pro software.

HIS6-PHD2 (181–426) [3] = assay: In vitro hydroxylation assay (HIS6-PHD2 treatment, then IVTT pVHL pull-down); assay type: biochemical; conditions: unmodified biotinylated peptides, 15 μg/mL HIS6-PHD2 (181–426), 1 h room temperature, then IVTT HA-VHL30 under stringent buffer
Procedure: Considering that prolyl hydroxylation is indispensable for HIF-2α binding to pVHL, we next examined the notion that the A530V mutation negatively influences hydroxylation of HIF-2α via PHD2, which would attenuate HIF-2α A530V binding affinity for pVHL. We conducted an in vitro hydroxylation assay utilizing unmodified peptides (amino acids 523–542) incubated with purified HIS6-PHD2 (catalytic core, amino acids 181–426).
Fig. 5 A subset of class 1 mutations specifically disrupts PHD2-mediated hydroxylation. a, b Biotinylated HIF-2α peptides (residues 523–542) were immobilized on streptavidin- agarose beads and incubated with HIS6-PHD2 for 1 h at room temperature prior to incubation with in vitro transcribed and translated (IVTT) pVHL. Streptavidin beads were pulled down (PD) and levels of HA-tagged pVHL were visualized via immmunoblotting (IB). c HEK293a cells were co-transfected with FLAG-VHL and HA-HIF-2α constructs. FLAG was immunoprecipitated (IP) and levels of HA-tagged HIF-2α were visualized via immunoblotting (IB). * denotes uncharacterized band
The in vitro pVHL-HIF-2α hydroxylation assay was performed according to a previously published protocol. 5 μg of biotinylated HIF-2α peptide was immobilized on streptavidin-agarose beads. Subsequently, peptides were incubated with 15 μg/mL HIS6-PHD2 (181–426) in 500 μL of 40 mM HEPES pH 7.4, 80 mM KCl, 5 mM a-ketoglutarate, 2 mM ascorbic acid, 100 μM FeCl2 tetrahydrate solution at room temperature for 1 h. FeCl2 was stored under anoxic conditions to prevent oxidation. Following hydroxylation, beads were washed 5x with EBC buffer and peptides were incubated with IVTT HA-VHL30 under the stringent buffer conditions described above.

HIS6-PHD2 (181–426) [4] = assay: Steady-state pull-down of purified HIS6-PHD2 with biotinylated HIF-2α peptides; assay type: binding
From the text: To first test this hypothesis, we performed steady-state pull-down experiments with HIF-2α peptides (523–542) and purified HIS6-PHD2 (181–426). To stabilize the interaction between enzyme and substrate, it was necessary to include MnCl2 and N-oxalylglycine (NOG) in the binding buffer. Mn^2+ and NOG substitute for Fe^2+ and αKG, respectively, which stabilizes the HIF-2α-PHD2 interaction while preventing enzymatic turnover. A similar strategy was employed during co-crystallization of HIF-1α peptide with PHD2[43]. We observed that […] tested HIF-2α mutations result in decreased affinity for PHD2 (Supplementary Figure 6a). […] Next, we co-transfected HEK293a cells with 3xFLAG-HIF-2α ODD and HA-PHD2 constructs. […] The increased binding of the M535I mutant to PHD2 was not observed in this experiment. One important caveat is that the HIF-2α ODD constructs contain both the P405 and P531 sites. Thus, the residual PHD2 binding observed among HIF-2α mutants may partially be driven by the P405 site, which may mask differential PHD2 binding among the HIF-2α mutant ODD constructs.
5 μg of biotinylated HIF-2α peptide (WT or mutant) was immobilized on streptavidin agarose beads and incubated with a […] solution of purified HIS6-PHD2 (181–426) in 50 mM Tris-HCl pH 7.5, 0.005% (v/v) Tween-20 buffer supplemented with or without 1 mM MnCl2 and 1 mM NOG, for 2 h at 4 °C. Beads were washed 2x with the same buffer. Biotinylated peptide was pulled down via streptavidin agarose beads and protein was eluted by boiling beads in sample buffer. Protein levels of HIS6-PHD2 were determined by western blotting. Uncropped western blots are provided in Supplementary Figure 8.
Supplementary Figure 6. HIF-2α mutations disrupt PHD2 binding. (A) Biotinylated HIF-2α peptides (523-542, except where noted) were immobilized on streptavidin- agarose beads and incubated with purified HIS6-PHD2 (181-426) in the presence or absence of 1 mM MnCl2 and 1 mM N-oxalylglycine (NOG).
Streptavidin beads were pulled down (PD) and levels of HIS6-tagged PHD2 were visualized via immmunoblotting (IB). […]

HIS6-PHD2(181-426) = assay: Biolayer interferometry of HIS6-PHD2 binding to biotinylated HIF-2α peptides (523-542); conditions: BLI, 1 mM MnCl2 and 1 mM N-oxalylglycine, from mM to μM, accurate constants not possible (PHD2 aggregation)
From the text: 2. The authors concluded that some of class 1 mutation affects PHD2-mediated hydroxylation of HIF-2α (Fig. 4). I think it is better to examine the interaction between HIF -2α mutants and PHD2 utilizing IP-Western and BLI. Also, negative controls (non-hydroxylated HIF-2α peptide without PHD2 treatment) should be included in Fig. 4A and 4B.
RE S PO N S E : Done. We performed binding assays with recombinant PHD2 to test the reviewer’s […]
major technical hurdle with performing binding assay with enzymes is overcoming the inherently transient nature of the interaction.
In an effort to stabilize the interaction between HIF-2α peptide and PHD2, we incorporated a technique that was used during co-crystallization of HIF-1α peptide with PHD2 (Chowdhury et al., 2009). As PHD2 normally forms a stable complex with co-factors Fe2+ and α-ketoglutarate (αK G), we formed a complex of PHD2 with Mn2+ and N-oxalylglycine (NOG), which mimic iron and αK G, […]
During BLI experiments, the addition of […]
Figure X. Biolayer interferometry studies of HIF-2α peptide binding to PHD2. […] Biotinylated peptides were coupled to streptavidin- coated biosensors and monitored for binding to PHD2 at the indicated concentrations in the presence or absence of 1 mM MnCl2 and 1 mM N-oxalylglycine. The data were analyzed based on a 1:1 binding model using the BLItz Pro software with the fitted curves shown as gray lines. […]

T1 sequence (P40337 54-213): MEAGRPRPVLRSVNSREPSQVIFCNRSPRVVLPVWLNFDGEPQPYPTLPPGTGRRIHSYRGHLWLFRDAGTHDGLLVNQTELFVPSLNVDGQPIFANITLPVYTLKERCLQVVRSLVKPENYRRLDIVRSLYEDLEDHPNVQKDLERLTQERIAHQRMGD
T1 sequence (Q15370 whole entry partner): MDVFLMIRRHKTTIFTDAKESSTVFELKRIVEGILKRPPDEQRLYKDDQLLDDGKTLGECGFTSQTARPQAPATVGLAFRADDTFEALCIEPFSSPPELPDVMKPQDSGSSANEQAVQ
T1 sequence (Q15369 17-112 partner limits assumed): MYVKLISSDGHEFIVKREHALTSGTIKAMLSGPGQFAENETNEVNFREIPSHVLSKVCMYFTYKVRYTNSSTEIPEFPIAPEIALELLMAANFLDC

ka (association rate) [2] | binding to pVHL following HIS6-PHD2 treatment (immunoblot, in words) (HIS6-PHD2 (181–426) [3]) | decrease of Kd for PHD2 on addition of Mn2+ and NOG (HIS6-PHD2(181-426)) | Compound | binding to VBC by ELISA (absorbance at 450 nm, in words) [1] | pull-down of recombinant PHD2 (in words) (HIS6-PHD2 (181–426) [4]; earlier experiments, without Mn2+/NOG stabilization) | affinity for PHD2 in steady-state pull-down (immunoblot, in words) (HIS6-PHD2 (181–426) [4]; peptides (523–542), purified HIS6-PHD2 (181–426), with 1 mM MnCl2 and 1 mM NOG, 2 h at 4 °C)
4.0 ± 0.4 x10^4 Ms^−1 | – | – | CC[C@H](C)[C@H](NC(=O)[C@H](Cc1ccc(O)cc1)NC(=O)[C@@H]1C[C@@H](O)CN1C(=O)[C@H](C)NC(=O)[C@@H]1CCCN1C(=O)[C@@H](NC(=O)[C@H](CCC(=O)O)NC(=O)[C@H](CC(C)C)NC(=O)[C@H](CC(=O)O)NC(=O)[C@H](CC(C)C)NC(=O)[C@H](CCC(=O)O)NC(=O)CCCC[C@@H]1SC[C@@H]2NC(=O)N[C@@H]21)[C@@H](C)O)C(=O)N1CCC[C@H]1C(=O)N[C@@H](CCSC)C(=O)N[C@@H](CC(=O)O)C(=O)NCC(=O)N[C@@H](CCC(=O)O)C(=O)N[C@@H](CC(=O)O)C(=O)N[C@@H](Cc1ccccc1)C(=O)N[C@@H](CCC(N)=O)C(N)=O [HIF-2αOH (L529P)] | does not have a statistically significant effect | – | –
– | bound robustly | roughly 1000 fold | ELDLETLA[Hyp/P]YIPMDGEDFQL [Bio-HIF-2α(523-542;WT)] | – | failed to pull -down recombinant PHD2 protein | observed binding
